Assays:
[1] = molecular target: T1, human CRF1 receptor (Homo sapiens, UniProt P34998); experiment: Measurement of CRF Binding Inhibitory Rate (receptor binding experiment with 125I-CRF); details: human CRF1 receptor expressing CHO cellular membrane fraction, 50 pM 125I-CRF, room temperature 1.5 hr, 0.05 nM to 10 μM of compound; read-out: IC50 values (CRF binding inhibition)
T1 construct: expressed in transfected cells; host or cells: CHO cells (membrane fraction)
T1 sequence (P34998 24-415): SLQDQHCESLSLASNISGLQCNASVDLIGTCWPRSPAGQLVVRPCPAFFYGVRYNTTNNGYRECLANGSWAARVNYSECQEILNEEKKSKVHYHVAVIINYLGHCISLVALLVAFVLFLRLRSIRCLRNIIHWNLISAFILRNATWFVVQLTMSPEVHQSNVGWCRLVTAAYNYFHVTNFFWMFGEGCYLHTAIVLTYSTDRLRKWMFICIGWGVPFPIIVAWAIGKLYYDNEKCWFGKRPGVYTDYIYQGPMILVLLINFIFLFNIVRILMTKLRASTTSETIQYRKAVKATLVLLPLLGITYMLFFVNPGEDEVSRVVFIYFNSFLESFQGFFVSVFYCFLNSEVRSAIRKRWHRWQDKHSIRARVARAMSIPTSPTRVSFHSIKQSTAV

SMILES: CCC(CC)c1ccc(Cl)c2nc3n(c12)CCCC(=O)N3c1ccc(Cl)cc1Cl [Example 22, 10-Chloro-1-(2,4-dichlorophenyl)-7-(1-ethylpropyl)-4,5-dihydro-1H-[1,3]diazepino[1,2-a]benzimidazol-2(3H)-one]
- IC50 [1]: < 1000 nM
- melting point: 135 to 137 °C

SMILES: CCC(CC)c1ccc(Cl)c2nc3n(c12)CCCCN3c1ccc(Cl)cc1 [Example 23, 10-Chloro-1-(4-chlorophenyl)-7-(1-ethylpropyl)-2,3,4,5-tetrahydro-1H-[1,3]diazepino[1,2-a]benzimidazole]
- IC50 [1]: < 1000 nM
- melting point: 133 to 135 °C

SMILES: CCC(CC)c1ccc(Cl)c2nc3n(c12)CCCCN3c1cnc(N(C)C)cc1C [Example 25, 5-[10-Chloro-7-(1-ethylpropyl)-2,3,4,5-tetrahydro-1H-[1,3]diazepino[1,2-a]benzimidazol-1-yl]-N,N,4-trimethylpyridin-2-amine]
- IC50 [1]: < 1000 nM
- melting point: 156 to 157 °C

SMILES: CCC(CC)c1ccc(Cl)c2nc3n(c12)CCCCN3c1c[n+]([O-])c(N(C)C)cc1C [Example 26, 5-[10-Chloro-7-(1-ethylpropyl)-2,3,4,5-tetrahydro-1H-[1,3]diazepino[1,2-a]benzimidazol-1-yl]-N,N,4-trimethylpyridin-2-amine 1-oxide]
- IC50 [1]: < 1000 nM
- melting point: 142 to 143 °C

SMILES: CCC(CC)c1ccc(Cl)c2nc3n(c12)CCCCN3c1ccc(OC)nc1OC [Example 28, 10-Chloro-1-(2,6-dimethoxypyridin-3-yl)-7-(1-ethylpropyl)-2,3,4,5-tetrahydro-1H-[1,3]diazepino[1,2-a]benzimidazole]
- IC50 [1]: < 1000 nM
- melting point: 85 to 88 °C

SMILES: CCC(CC)c1ccc(Cl)c2nc3n(c12)CCCCN3c1cnc(N2CCCC2)cc1C [Example 29, 10-Chloro-7-(1-ethylpropyl)-1-(4-methyl-6-pyrrolidin-1-ylpyridin-3-yl)-2,3,4,5-tetrahydro-1H-[1,3]diazepino[1,2-a]benzimidazole]
- IC50 [1]: < 1000 nM
- melting point: 160 to 161 °C

SMILES: CCC(CC)c1ccc(Cl)c2nc3n(c12)CCCCN3c1cnc(OC)cc1C [Example 30, 10-Chloro-7-(1-ethylpropyl)-1-(6-methoxy-4-methylpyridin-3-yl)-2,3,4,5-tetrahydro-1H-[1,3]diazepino[1,2-a]benzimidazole]
- IC50 [1]: < 1000 nM
- melting point: 112 to 114 °C

SMILES: CCC(CC)c1ccc(Cl)c2nc3n(c12)CCCCN3c1ccc(C)cc1Br [Example 31, 1-(2-Bromo-4-methylphenyl)-10-chloro-7-(1-ethylpropyl)-2,3,4,5-tetrahydro-1H-[1,3]diazepino[1,2-a]benzimidazole]
- IC50 [1]: < 1000 nM
- melting point: 152 to 155 °C

SMILES: CCC(CC)c1ccc(Cl)c2nc3n(c12)CCCCN3c1ccc(C)cc1C#N [Example 36, 2-[10-Chloro-7-(1-ethylpropyl)-2,3,4,5-tetrahydro-1H-[1,3]diazepino[1,2-a]benzimidazol-1-yl]-5-methylbenzonitrile]
- IC50 [1]: < 1000 nM
- melting point: 176 to 180 °C

SMILES: CCC(CC)c1cccc2nc3n(c12)CCCCN3c1ccc(OC)cc1OC [Example 37, 1-(2,4-Dimethoxyphenyl)-7-(1-ethylpropyl)-2,3,4,5-tetrahydro-1H-[1,3]diazepino[1,2-a]benzimidazole]
- IC50 [1]: < 1000 nM
- melting point: 145 to 148 °C

SMILES: CCC(CC)c1ccc(Cl)c2nc3n(c12)CCCCN3c1ccc(C(F)(F)F)cc1Br [Example 38, 1-[2-Bromo-4-(trifluoromethyl)phenyl]-10-chloro-7-(1-ethylpropyl)-2,3,4,5-tetrahydro-1H-[1,3]diazepino[1,2-a]benzimidazole]
- IC50 [1]: < 1000 nM
- melting point: 158 to 160 °C

SMILES: CCC(CC)c1ccc(Cl)c2nc3n(c12)CCCCN3c1ccc(OC(F)(F)F)cc1Br [Example 39, 1-[2-Bromo-4-(trifluoromethoxy)phenyl]-10-chloro-7-(1-ethylpropyl)-2,3,4,5-tetrahydro-1H-[1,3]diazepino[1,2-a]benzimidazole]
- IC50 [1]: < 1000 nM
- melting point: 114 to 117 °C

SMILES: CCC(CC)c1ccc(Cl)c2nc3n(c12)CCCCN3c1ccc(SC)cc1C [Example 44, 10-Chloro-7-(1-ethylpropyl)-1-[2-methyl-4-(methylthio)phenyl]-2,3,4,5-tetrahydro-1H-[1,3]diazepino[1,2-a]benzimidazole]
- IC50 [1]: < 1000 nM
- melting point: 113 to 115 °C

SMILES: CCC(CC)c1ccc(Cl)c2nc3n(c12)CCCCN3c1ccc([S+](C)[O-])cc1C (centres unmarked) [Example 45, 10-Chloro-7-(1-ethylpropyl)-1-[2-methyl-4-(methylsulfinyl)phenyl]-2,3,4,5-tetrahydro-1H-[1,3]diazepino[1,2-a]benzimidazole]
- IC50 [1]: < 1000 nM
- melting point: 189 to 190 °C

SMILES: CCC(CC)c1ccc(Cl)c2nc3n(c12)CCCCN3c1ccc(S(C)(=O)=O)cc1C [Example 46, 10-Chloro-7-(1-ethylpropyl)-1-[2-methyl-4-(methylsulfonyl)phenyl]-2,3,4,5-tetrahydro-1H-[1,3]diazepino[1,2-a]benzimidazole]
- IC50 [1]: < 1000 nM
- melting point: 170 to 171 °C

SMILES: CCC(CC)c1ccc(Cl)c2nc3n(c12)CCCCN3c1ccc(C(N)=O)cc1C [Example 48, 4-[10-Chloro-7-(1-ethylpropyl)-2,3,4,5-tetrahydro-1H-[1,3]diazepino[1,2-a]benzimidazol-1-yl]-3-methylbenzamide]
- IC50 [1]: < 1000 nM
- melting point: 185 to 186 °C

SMILES: CCC(CC)c1ccc(Cl)c2nc3n(c12)CCCCN3c1ccc(C(=O)NC)cc1C [Example 49, 4-[10-Chloro-7-(1-ethylpropyl)-2,3,4,5-tetrahydro-1H-[1,3]diazepino[1,2-a]benzimidazol-1-yl]-N,3-dimethylbenzamide]
- IC50 [1]: < 1000 nM
- melting point: 127 to 128 °C

SMILES: CCC(CC)c1ccc(Cl)c2nc3n(c12)CCCCN3c1ccc(C(=O)N(C)C)cc1C [Example 50, 4-[10-Chloro-7-(1-ethylpropyl)-2,3,4,5-tetrahydro-1H-[1,3]diazepino[1,2-a]benzimidazol-1-yl]-N,N,3-trimethylbenzamide]
- IC50 [1]: < 1000 nM
- melting point: 113 to 114 °C

SMILES: CCC(CC)c1ccc(Cl)c2nc3n(c12)CCCCN3c1ccc(N(C)C)cc1C [Example 51, 4-[10-Chloro-7-(1-ethylpropyl)-2,3,4,5-tetrahydro-1H-[1,3]diazepino[1,2-a]benzimidazol-1-yl]-N,N,3-trimethylaniline]
- IC50 [1]: < 1000 nM
- melting point: 174 to 175 °C

SMILES: CCC(CC)c1ccc(Cl)c2nc3n(c12)CCCCN3c1ccc(N(C)C)cc1OC(F)(F)F [Example 53, 4-[10-Chloro-7-(1-ethylpropyl)-2,3,4,5-tetrahydro-1H-[1,3]diazepino[1,2-a]benzimidazol-1-yl]-N,N-dimethyl-3-(trifluoromethoxy)aniline]
- IC50 [1]: < 1000 nM
- melting point: 158 to 159 °C

SMILES: CCC(CC)c1ccc(Cl)c2nc3n(c12)CCCCN3c1cccc2c1OC(F)(F)O2 [Example 54, 10-Chloro-1-(2,2-difluoro-1,3-benzodioxol-4-yl)-7-(1-ethylpropyl)-2,3,4,5-tetrahydro-1H-[1,3]diazepino[1,2-a]benzimidazole]
- IC50 [1]: < 1000 nM
- melting point: 156 to 158 °C

SMILES: CCC(CC)c1ccc(Cl)c2nc3n(c12)CCCCN3c1c(C)cc(Cl)cc1OC [Example 56]
- IC50 [1]: < 1000 nM
- melting point: 196 to 198 °C

SMILES: CCC(CC)c1ccc(Cl)c2nc3n(c12)CCCCN3c1cnc(C#N)cc1C [Example 59, 5-[10-Chloro-7-(1-ethylpropyl)-2,3,4,5-tetrahydro-1H-[1,3]diazepino[1,2-a]benzimidazol-1-yl]-4-methylpyridine-2-carbonitrile]
- IC50 [1]: < 1000 nM
- melting point: 177 to 178 °C

SMILES: CCC(CC)c1ccc(Cl)c2nc3n(c12)CCCCN3c1cnc(C(C)=O)cc1C [Example 60, 1-{5-[10-Chloro-7-(1-ethylpropyl)-2,3,4,5-tetrahydro-1H-[1,3]diazepino[1,2-a]benzimidazol-1-yl]-4-methylpyridin-2-yl}ethanone]
- IC50 [1]: < 1000 nM
- melting point: 144 to 145 °C

SMILES: CCC(CC)c1ccc(Cl)c2nc3n(c12)CCCCN3c1cnc(C(N)=O)cc1C [Example 61, 5-[10-Chloro-7-(1-ethylpropyl)-2,3,4,5-tetrahydro-1H-[1,3]diazepino[1,2-a]benzimidazol-1-yl]-4-methylpyridine-2-carboxamide]
- IC50 [1]: < 1000 nM
- melting point: 267 to 269 °C

SMILES: CCC(CC)c1ccc(Cl)c2nc3n(c12)CCCCN3c1ncc(Cl)cc1Cl [Example 62, 10-Chloro-1-(3,5-dichloropyridin-2-yl)-7-(1-ethylpropyl)-2,3,4,5-tetrahydro-1H-[1,3]diazepino[1,2-a]benzimidazole]
- IC50 [1]: < 1000 nM
- melting point: 175 to 176 °C

SMILES: CCC(CC)c1ccc(Cl)c2nc3n(c12)CCCCN3c1ncc(C(F)(F)F)cc1Cl [Example 63, 10-Chloro-1-[3-chloro-5-(trifluoromethyl)pyridin-2-yl]-7-(1-ethylpropyl)-2,3,4,5-tetrahydro-1H-[1,3]diazepino[1,2-a]benzimidazole]
- IC50 [1]: < 1000 nM
- melting point: 108 to 110 °C

SMILES: CCC(CC)c1ccc(Cl)c2nc3n(c12)CCCCN3c1ncc([N+](=O)[O-])cc1C [Example 64, 10-Chloro-7-(1-ethylpropyl)-1-(3-methyl-5-nitropyridin-2-yl)-2,3,4,5-tetrahydro-1H-[1,3]diazepino[1,2-a]benzimidazole]
- IC50 [1]: < 1000 nM
- melting point: 204 to 205 °C
